Measurements published in patent publication US6362183B1, “Aromatic sulfonyl alpha-hydroxy hydroxamic acid compounds” (G. D. Searle & Company, priority 1997, dated 2002).
Values belong to the compound of their own block, whether it stands above or below them.

Columns and labels:
[1] = biological target: MMP-3 (Homo sapiens, UniProt P08254); assay: In vitro metalloprotease inhibition, fluorogenic peptide assay; format: biochemical; conditions: MCA peptide substrate 4 μM, room temperature, pH 7.5
Method: (§1) Briefly, 4-aminophenylmercuric acetate (APMA) or trypsin activated MMPs were incubated with various concentrations of the inhibitor compound at room temperature for 5 minutes.
(§2) MCA-ProLeuGlyLeuDpaAlaArgNH^2, wherein MCA is methoxycoumarin and Dpa is 3-(2,4-dinitrophenyl)-L-2,3-diaminopropionyl alanine.
(§3) The buffer used for assays contained 100 mM Tris-HCl, 100 mM NaCl, 10 mM CaCl2 and 0.05 percent polyethyleneglycol (23) lauryl ether at a pH value of 7.5.

[2] = biological target: MMP-9 (Homo sapiens, UniProt P14780); assay: as above; format: biochemical; conditions: MCA peptide substrate 4 μM, room temperature, pH 7.5
Method: as §1, §2, §3

[3] = biological target: MMP-8 (Homo sapiens, UniProt P22894); assay: as above; format: biochemical; conditions: MCA peptide substrate 4 μM, room temperature, pH 7.5
Method: as §1, §2, §3

[4] = biological target: T1, MMP-2 (Homo sapiens, UniProt P08253); assay: as above; format: biochemical; conditions: MCA peptide substrate 4 μM, room temperature, pH 7.5
T1 sequence (P08253 110-660): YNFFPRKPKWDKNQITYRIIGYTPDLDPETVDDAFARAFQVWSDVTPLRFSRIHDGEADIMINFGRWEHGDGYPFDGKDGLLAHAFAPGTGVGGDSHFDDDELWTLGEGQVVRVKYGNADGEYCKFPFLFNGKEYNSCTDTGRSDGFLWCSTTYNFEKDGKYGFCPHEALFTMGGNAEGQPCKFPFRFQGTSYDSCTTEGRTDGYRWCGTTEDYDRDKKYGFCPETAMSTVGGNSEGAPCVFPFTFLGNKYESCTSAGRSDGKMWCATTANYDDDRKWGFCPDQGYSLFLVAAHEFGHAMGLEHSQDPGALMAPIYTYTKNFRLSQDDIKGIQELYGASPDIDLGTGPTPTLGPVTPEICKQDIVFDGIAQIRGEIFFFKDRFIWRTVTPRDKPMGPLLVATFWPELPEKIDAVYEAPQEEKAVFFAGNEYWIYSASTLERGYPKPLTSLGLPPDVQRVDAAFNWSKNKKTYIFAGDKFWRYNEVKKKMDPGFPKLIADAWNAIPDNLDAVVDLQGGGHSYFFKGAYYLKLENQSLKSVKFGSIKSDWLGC
Method: as §1, §2, §3

[5] = biological target: T2, recombinant human MMP-1 (Homo sapiens, UniProt P03956); assay: as above; format: biochemical; conditions: APMA-activated enzyme, MCA peptide substrate 4 μM, room temperature, pH 7.5
T2 construct: made in house; host or cells: transfected HT-1080 cells
T2 sequence (P03956 100-469): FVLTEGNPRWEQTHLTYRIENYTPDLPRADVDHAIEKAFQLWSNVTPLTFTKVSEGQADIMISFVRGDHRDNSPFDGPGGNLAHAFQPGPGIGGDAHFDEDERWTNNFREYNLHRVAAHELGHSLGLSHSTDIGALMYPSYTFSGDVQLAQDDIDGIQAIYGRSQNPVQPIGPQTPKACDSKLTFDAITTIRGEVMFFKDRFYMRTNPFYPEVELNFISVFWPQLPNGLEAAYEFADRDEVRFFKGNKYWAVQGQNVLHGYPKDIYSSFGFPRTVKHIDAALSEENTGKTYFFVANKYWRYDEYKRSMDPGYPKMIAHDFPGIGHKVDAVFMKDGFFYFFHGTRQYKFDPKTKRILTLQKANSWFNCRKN
Method: as §1
(§4) More specifically, recombinant human MMP-13 and MMP-1 enzymes were prepared in laboratories of the assignee. MMP-13 was expressed in baculovirus as a proenzyme, and purified first over a heparin agarose column and then over a chelating zinc chloride column. The proenzyme was activated by APMA for use in the assay. MMP-1 expressed in transfected HT-1080 cells was provided by Dr. Howard Welgus of Washington University, St. Louis, Mo. The enzyme was also activated using APMA and was then purified over a hydroxamic acid column.
as §2, §3

[6] = biological target: T3, recombinant human MMP-13 (Homo sapiens, UniProt P45452); assay: as above; format: biochemical; conditions: APMA-activated enzyme, MCA peptide substrate 4 μM, room temperature, pH 7.5
T3 construct: made in house
Method: as §1, §4, §2, §3

[7] = system: angiogenesis in the cornea of a mouse; assay: In vivo angiogenesis assay (corneal micropocket assay); parameters: species or system mouse (C57Bl/6); conditions: area of corneal neovascularization, bFGF pellet, dosed daily, scored at day five; exemplary dose 50 mg/kg bid, po
Method: The study of angiogenesis depends on a reliable and reproducible model for the stimulation and inhibition of a neovascular response. The corneal micropocket assay provides such a model of angiogenesis in the cornea of a mouse. See, A Model of Angiogenesis in the Mouse Cornea; Kenyon, B M, et al., Investigative Ophthalmology & Visual Science, Jul.
In this assay, uniformly sized Hydron™ pellets containing bFGF and sucralfate were prepared and surgically implanted into the stroma mouse cornea adjacent to the temporal limbus. The pellets were formed by making a suspension of 20 μL sterile saline containing […] recombinant bFGF, 10 mg of sucralfate and 10 μL of 12 percent Hydron™ in ethanol. The slurry was then deposited on a 10×10 mm piece of sterile nylon mesh. After drying, the nylon fibers of the mesh were separated to release the pellets.
The corneal pocket was made by anesthetizing a 7 week old C57Bl/6 female mouse, then proptosing the eye with a jeweler's forceps. Using a dissecting microscope, a central, intrastromal linear keratotomy of approximately 0.6 mm in length was performed with a #15 surgical blade, parallel to the insertion of the lateral rectus muscle. Using a modified cataract knife, a lamellar micropocket was dissected toward the temporal limbus. The pocket was extended to within 1.0 mm of the temporal limbus. A single pellet was placed on the corneal surface at the base of the pocket with a jeweler's forceps. The pellet was then advanced to the temporal end of the pocket. Antibiotic ointment was then applied to the eye.
Mice were dosed on a daily basis for the duration of the assay. Dosing of the animals was based on bioavailability and overall potency of the compound. An exemplary dose is 50 mg/kg bid, po. Neovascularization of the corneal stroma begins at about day three and was permitted to continue under the influence of the assayed compound until day five. At day five, the degree of angiogenic inhibition was scored by viewing the neovascular progression with a slit lamp microscope.
The mice were anesthetized and the studied eye was once again proptosed. The maximum vessel length of neovascularization, extending from the limbal vascular plexus toward the pellet was measured. In addition, the contiguous circumferential zone of neovascularization was measured as clock hours, where 30 degrees of arc equals one clock hour. The area of angiogenesis was calculated as follows. [formula]
The studied mice were thereafter compared to control mice and the difference in the area of neovascularization was recorded.

[8] = system: advanced, rapidly progressive, treatment-refractory solid tumor cancers; conditions: patients with colorectal, pancreatic, ovarian, prostate cancers; cited from earlier work

Chain of MMP-3 (P08254 100-477, species assumed): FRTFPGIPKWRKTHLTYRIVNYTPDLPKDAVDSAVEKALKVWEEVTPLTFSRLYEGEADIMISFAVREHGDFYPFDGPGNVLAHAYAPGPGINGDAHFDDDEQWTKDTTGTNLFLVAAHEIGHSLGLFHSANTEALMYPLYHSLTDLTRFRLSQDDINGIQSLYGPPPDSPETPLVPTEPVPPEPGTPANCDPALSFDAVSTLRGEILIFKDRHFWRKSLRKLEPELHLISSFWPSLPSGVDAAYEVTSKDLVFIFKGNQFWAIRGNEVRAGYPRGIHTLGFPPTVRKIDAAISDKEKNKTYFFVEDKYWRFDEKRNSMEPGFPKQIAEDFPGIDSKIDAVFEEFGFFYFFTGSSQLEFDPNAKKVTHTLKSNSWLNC
Chain of MMP-9 (P14780 107-707 limits assumed, species assumed): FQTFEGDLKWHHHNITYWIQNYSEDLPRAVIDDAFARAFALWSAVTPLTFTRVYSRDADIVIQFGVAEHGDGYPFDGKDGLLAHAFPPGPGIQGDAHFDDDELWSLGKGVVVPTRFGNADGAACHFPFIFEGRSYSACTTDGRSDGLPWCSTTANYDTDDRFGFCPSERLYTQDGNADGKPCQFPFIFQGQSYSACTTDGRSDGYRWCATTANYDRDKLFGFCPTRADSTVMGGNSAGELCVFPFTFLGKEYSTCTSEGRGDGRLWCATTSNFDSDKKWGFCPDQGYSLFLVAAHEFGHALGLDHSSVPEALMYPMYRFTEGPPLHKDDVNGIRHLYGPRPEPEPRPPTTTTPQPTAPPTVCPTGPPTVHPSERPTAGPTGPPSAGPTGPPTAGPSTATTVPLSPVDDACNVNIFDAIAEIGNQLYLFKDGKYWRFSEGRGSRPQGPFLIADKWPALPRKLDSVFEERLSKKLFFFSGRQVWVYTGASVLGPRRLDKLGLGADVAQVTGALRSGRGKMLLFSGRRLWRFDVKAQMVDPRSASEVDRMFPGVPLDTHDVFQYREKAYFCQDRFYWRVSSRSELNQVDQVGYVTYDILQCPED
Chain of MMP-8 (P22894 101-467, species assumed): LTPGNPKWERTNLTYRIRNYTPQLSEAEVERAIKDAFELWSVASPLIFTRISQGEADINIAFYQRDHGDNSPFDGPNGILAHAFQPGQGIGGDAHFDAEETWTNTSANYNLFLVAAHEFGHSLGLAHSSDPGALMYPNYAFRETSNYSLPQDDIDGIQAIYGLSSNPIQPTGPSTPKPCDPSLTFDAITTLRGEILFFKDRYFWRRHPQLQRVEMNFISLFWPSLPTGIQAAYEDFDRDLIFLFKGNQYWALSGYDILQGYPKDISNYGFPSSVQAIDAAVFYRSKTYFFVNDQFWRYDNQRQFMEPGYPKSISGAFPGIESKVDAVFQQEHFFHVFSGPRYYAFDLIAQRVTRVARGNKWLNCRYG

Structure (SMILES): Cc1ccc(Oc2ccc(S(=O)(=O)CC(O)(CO)C(=O)NO)cc2)cc1C (centres unmarked) [Example 4, 3-[[4-(3,4-dimethylphenoxy)phenyl]sulfonyl]-N,2-dihydroxy-2-(hydroxymethyl)propanamide]
IC50 [1]: 48.5 nM
IC50 [2]: 12.4 nM
IC50 [3]: 4.5 nM
IC50 [4]: 0.4 nM
IC50 [5]: 9000 nM
IC50 [6]: 0.4 nM
Percentage of Control [7]: 65.2%

Structure (SMILES): CNC(=O)[C@@H](NC(=O)[C@H](CC(C)C)[C@H](O)C(=O)NO)C(C)(C)C [marimastat]
effect on cancer-specific antigens used as surrogate markers for biological activity [8]: dose-related reduction in the rise of cancer-specific antigens

Further compounds by falling IC50 [1], results first:

IC50 [1]: 166 nM
IC50 [2]: 20 nM
IC50 [3]: 4 nM
IC50 [4]: 1 nM
IC50 [5]: 6000 nM
IC50 [6]: 3 nM
Structure (SMILES): Cl.O=C(NO)C(O)(CN1CCOCC1)CS(=O)(=O)c1ccc(Oc2ccccc2)cc1 (stereo not drawn) [Example 3, N,α-dihydroxy-α-[[(4-phenoxyphenyl)sulfonyl]methyl]-4-morpholinepropanamide, monohydrochloride]
Percentage of Control [7]: 77.4%

IC50 [1]: 44 nM
IC50 [2]: 7 nM
IC50 [3]: 4.1 nM
IC50 [4]: 1 nM
IC50 [5]: 470 nM
IC50 [6]: 1.2 nM
Structure (SMILES): O=C(NO)C(O)(CO)CS(=O)(=O)c1ccc(Oc2ccccc2)cc1 (centres unmarked) [Example 2, N,2-dihydroxy-2-(hydroxymethyl)-3-[(4-phenoxyphenyl)-sulfonyl]propanamide]
Percentage of Control [7]: 53.4%

IC50 [1]: 30 nM
IC50 [2]: 4.8 nM
IC50 [3]: 2.5 nM
IC50 [4]: 0.5 nM
IC50 [5]: 1100 nM
IC50 [6]: 1.1 nM
Structure (SMILES): CC(O)(CS(=O)(=O)c1ccc(Oc2ccccc2)cc1)C(=O)NO (centres unmarked) [Example 1, N,2-dihydroxy-2-methyl-3-[(4-phenoxyphenyl)sulfonyl]propanamide]
Percentage of Control [7]: 51.9%
